Reference: publication PMC5218480 (PLoS ONE, 2017)

Test system: MV-4-11 cells
Assay: Gene expression microarray analysis (Affymetrix PrimeView) and GSEA
Type: cell-based, human
Set-up: RFU PODN (11730768_x_at) / Fold change /veh PODN (11730768_x_at) / RFU LINC00158 (11744669_a_at) / Fold change /veh LINC00158 (11744669_a_at) / RFU DUSP10 (11751237_a_at) / Fold change /veh DUSP10 (11751237_a_at) / RFU ID3 (11757404_x_at) / Fold change /veh ID3 (11757404_x_at) / RFU PLEKHG5 (11737974_s_at) / Fold change /veh PLEKHG5 (11737974_s_at) / RFU LRRC4B (11730491_at) / Fold change /veh LRRC4B (11730491_at) / RFU GIMAP4 (11747438_a_at) / Fold change /veh GIMAP4 (11747438_a_at) / RFU KRT8 (11758183_x_at) / Fold change /veh KRT8 (11758183_x_at) / RFU CNN1 (11734310_a_at) / Fold change /veh CNN1 (11734310_a_at) / RFU VPS37D (11726825_at) / Fold change /veh VPS37D (11726825_at) / RFU C10orf10 (11716522_x_at) / Fold change /veh C10orf10 (11716522_x_at) / RFU KIR2DL2 /// KIR2DL4 /// KIR2DL5A /// KIR2DL5B /// KIR2DS1 /// KIR2DS2 /// KIR2DS3 /// KIR2DS4 /// KIR3DL3 /// KIR3DL3 /// KIR3DS1 (11738374_at) / Fold change /veh KIR2DL2 /// KIR2DL4 /// KIR2DL5A /// KIR2DL5B /// KIR2DS1 /// KIR2DS2 /// KIR2DS3 /// KIR2DS4 /// KIR3DL3 /// KIR3DL3 /// KIR3DS1 (11738374_at) / RFU C1QL1 (11718748_at) / Fold change /veh C1QL1 (11718748_at) / RFU TMPRSS4 (11747572_a_at) / Fold change /veh TMPRSS4 (11747572_a_at) / RFU HAMP (11756126_x_at) / Fold change /veh HAMP (11756126_x_at) / RFU RNFT2 (11725882_a_at) / Fold change /veh RNFT2 (11725882_a_at) / RFU NR4A2 (11747474_a_at) / Fold change /veh NR4A2 (11747474_a_at) / RFU ABCC12 (11746883_a_at) / Fold change /veh ABCC12 (11746883_a_at) / RFU TMEM136 (11760407_x_at) / Fold change /veh TMEM136 (11760407_x_at) / RFU CLDN22 /// WWC2 (11732394_at) / Fold change /veh CLDN22 /// WWC2 (11732394_at) / RFU HLA-DPB1 (11760878_x_at) / Fold change /veh HLA-DPB1 (11760878_x_at) / RFU SPINT1 (11716480_a_at) / Fold change /veh SPINT1 (11716480_a_at) / RFU GAP43 (11754022_s_at) / Fold change /veh GAP43 (11754022_s_at) / RFU A4GNT (11735810_at) / Fold change /veh A4GNT (11735810_at) / RFU PRB3 (11715151_x_at) / Fold change /veh PRB3 (11715151_x_at) / RFU TUBB4B (11761932_at) / Fold change /veh TUBB4B (11761932_at) / RFU CAPN14 (11732068_a_at) / Fold change /veh CAPN14 (11732068_a_at) / RFU TMCC2 (11721928_a_at) / Fold change /veh TMCC2 (11721928_a_at) / RFU IRGQ (11745062_a_at) / Fold change /veh IRGQ (11745062_a_at) / RFU FAM174B (11720279_a_at) / Fold change /veh FAM174B (11720279_a_at) / RFU TMPRSS4 (11748680_a_at) / Fold change /veh TMPRSS4 (11748680_a_at) / RFU FAM212B (11763350_a_at) / Fold change /veh FAM212B (11763350_a_at) / RFU PLEKHG5 (11743358_a_at) / Fold change /veh PLEKHG5 (11743358_a_at) / RFU ZSCAN30 (11745921_a_at) / Fold change /veh ZSCAN30 (11745921_a_at) / RFU CMKLR1 (11741424_a_at) / Fold change /veh CMKLR1 (11741424_a_at) / RFU LOC101060620 /// MAPK8IP1 (11723275_at) / Fold change /veh LOC101060620 /// MAPK8IP1 (11723275_at) / RFU SPTSSB (11747773_x_at) / Fold change /veh SPTSSB (11747773_x_at) / RFU PRSS12 (11739890_at) / Fold change /veh PRSS12 (11739890_at) / RFU BIN1 (11741810_x_at) / Fold change /veh BIN1 (11741810_x_at) / RFU WNT11 (11732464_a_at) / Fold change /veh WNT11 (11732464_a_at) / RFU C10orf10 (11716521_a_at) / Fold change /veh C10orf10 (11716521_a_at) / RFU C5orf56 (11738089_at) / Fold change /veh C5orf56 (11738089_at) / RFU CYB561 (11721691_x_at) / Fold change /veh CYB561 (11721691_x_at) / RFU ANKRD19P (11752326_a_at) / Fold change /veh ANKRD19P (11752326_a_at) / RFU OR2T12 /// OR2T33 /// OR2T8 (11738714_s_at) / Fold change /veh OR2T12 /// OR2T33 /// OR2T8 (11738714_s_at) / RFU VCAN (11748164_a_at) / Fold change /veh VCAN (11748164_a_at) / RFU JSRP1 (11732532_at) / Fold change /veh JSRP1 (11732532_at) / RFU KRTAP10-11 (11738290_x_at) / Fold change /veh KRTAP10-11 (11738290_x_at) / RFU MYO3A (11730013_a_at) / Fold change /veh MYO3A (11730013_a_at) / RFU EBF3 (11725865_a_at) / Fold change /veh EBF3 (11725865_a_at) / RFU CAMK2N1 (11719241_x_at) / Fold change /veh CAMK2N1 (11719241_x_at) / RFU C5orf56 (11738088_a_at) / Fold change /veh C5orf56 (11738088_a_at) / RFU OLFML3 (11715873_a_at) / Fold change /veh OLFML3 (11715873_a_at) / RFU LOC100653217 /// NTM (11731650_a_at) / Fold change /veh LOC100653217 /// NTM (11731650_a_at) / RFU MAPK11 (11762145_a_at) / Fold change /veh MAPK11 (11762145_a_at) / RFU FIZ1 (11724087_x_at) / Fold change /veh FIZ1 (11724087_x_at) / RFU OASL (11726364_x_at) / Fold change /veh OASL (11726364_x_at) / RFU SOX15 (11748057_x_at) / Fold change /veh SOX15 (11748057_x_at) / RFU CD79A (11719716_a_at) / Fold change /veh CD79A (11719716_a_at) / RFU HIST1H1D (11736915_at) / Fold change /veh HIST1H1D (11736915_at) / RFU CASKIN2 (11723855_a_at) / Fold change /veh CASKIN2 (11723855_a_at) / RFU LOC730098 (11760151_x_at) / Fold change /veh LOC730098 (11760151_x_at) / RFU OR4N2 (11742367_at) / Fold change /veh OR4N2 (11742367_at) / RFU PRRT2 (11749266_a_at) / Fold change /veh PRRT2 (11749266_a_at) / RFU SNX32 (11753110_a_at) / Fold change /veh SNX32 (11753110_a_at) / RFU CDHR5 (11726645_a_at) / Fold change /veh CDHR5 (11726645_a_at) / RFU RCAN1 (11760418_a_at) / Fold change /veh RCAN1 (11760418_a_at) / RFU FAM167A (11723789_a_at) / Fold change /veh FAM167A (11723789_a_at) / RFU FAM26E (11764081_at) / Fold change /veh FAM26E (11764081_at) / RFU ISYNA1 (11749810_s_at) / Fold change /veh ISYNA1 (11749810_s_at) / RFU ACY1 (11761880_at) / Fold change /veh ACY1 (11761880_at) / RFU 11764098_at / Fold change /veh 11764098_at / RFU SAMD14 (11745864_x_at) / Fold change /veh SAMD14 (11745864_x_at) / RFU NPB (11741838_a_at) / Fold change /veh NPB (11741838_a_at) / RFU TMPRSS6 (11731388_a_at) / Fold change /veh TMPRSS6 (11731388_a_at) / RFU KRTAP10-2 (11738614_at) / Fold change /veh KRTAP10-2 (11738614_at) / RFU ARHGAP8 /// PRR5-ARHGAP8 (11727945_x_at) / Fold change /veh ARHGAP8 /// PRR5-ARHGAP8 (11727945_x_at) / RFU KRTAP5-7 /// NADSYN1 (11734609_at) / Fold change /veh KRTAP5-7 /// NADSYN1 (11734609_at) / RFU RASL12 (11751679_a_at) / Fold change /veh RASL12 (11751679_a_at) / RFU CDKN2B (11736163_a_at) / Fold change /veh CDKN2B (11736163_a_at) / RFU PRF1 (11729649_at) / Fold change /veh PRF1 (11729649_at) / RFU, ZNF638 /// ZNF638-IT1 / Fold change vs veh, ZNF638 /// ZNF638-IT1 / RFU, PANK3 / Fold change vs veh, PANK3 / RFU, SH3YL1 / Fold change vs veh, SH3YL1 / RFU, ZEB2 / Fold change vs veh, ZEB2 / RFU, NRIP1 / Fold change vs veh, NRIP1 / RFU, PTTG1IP / Fold change vs veh, PTTG1IP / RFU, CAPN2 / Fold change vs veh, CAPN2 / RFU, MED14 / Fold change vs veh, MED14 / RFU, SNORA58 / Fold change vs veh, SNORA58 / RFU, C1orf63 / Fold change vs veh, C1orf63 / RFU, LRRFIP1 / Fold change vs veh, LRRFIP1 / RFU, NDUFAF7 / Fold change vs veh, NDUFAF7 / RFU, SLC12A2 / Fold change vs veh, SLC12A2 / RFU, IBTK / Fold change vs veh, IBTK / RFU, ESF1 / Fold change vs veh, ESF1 / Fold change vs veh, TMEM50B / RFU, TAOK1 / Fold change vs veh, TAOK1 / RFU, ACBD3 / Fold change vs veh, ACBD3 / RFU, TMA16 / Fold change vs veh, TMA16 / RFU, RWDD3 / Fold change vs veh, RWDD3 / RFU, BCAT1 / Fold change vs veh, BCAT1 / RFU, EDEM3 / Fold change vs veh, EDEM3 / RFU, TMEM33 / Fold change vs veh, TMEM33 / RFU, WDR75 / Fold change vs veh, WDR75 / RFU, AHCTF1 / Fold change vs veh, AHCTF1 / RFU, TFRC / Fold change vs veh, TFRC / RFU, ZDHHC17 / Fold change vs veh, ZDHHC17 / RFU, NOM1 / Fold change vs veh, NOM1 / RFU, ARL8B / Fold change vs veh, ARL8B / RFU, ZBTB11 / Fold change vs veh, ZBTB11 / RFU, TAMM41 / Fold change vs veh, TAMM41 / RFU, KIAA1704 /// LOC100996395 / Fold change vs veh, KIAA1704 /// LOC100996395 / RFU, ING1 / Fold change vs veh, ING1 / RFU, TRMT61B / Fold change vs veh, TRMT61B / RFU, FUBP3 / Fold change vs veh, FUBP3 / RFU, TP53 / Fold change vs veh, TP53 / RFU, TNKS2 / Fold change vs veh, TNKS2 / RFU, ZFP14 / Fold change vs veh, ZFP14 / RFU, ACTR2 / Fold change vs veh, ACTR2 / RFU, PPP3R1 / Fold change vs veh, PPP3R1 / RFU, PIK3R1 / Fold change vs veh, PIK3R1 / RFU, HNRNPA1 / Fold change vs veh, HNRNPA1 / RFU, RNF170 / Fold change vs veh, RNF170 / RFU, ZNF28 / Fold change vs veh, ZNF28 / RFU, RNGTT / Fold change vs veh, RNGTT / RFU, OGT / Fold change vs veh, OGT / RFU, BRD1 / Fold change vs veh, BRD1 / RFU, MARS / Fold change vs veh, MARS / RFU, ZNF655 / Fold change vs veh, ZNF655 / RFU, FAHD1 / Fold change vs veh, FAHD1 / RFU, BDP1 / Fold change vs veh, BDP1 / RFU, LRRCC1 / Fold change vs veh, LRRCC1 / RFU, ARID1A / Fold change vs veh, ARID1A / RFU, ZNF146 / Fold change vs veh, ZNF146 / RFU, ZNF330 / Fold change vs veh, ZNF330 / RFU, GPN3 / Fold change vs veh, GPN3 / RFU, C9orf123 / Fold change vs veh, C9orf123 / RFU, N4BP2L2 / Fold change vs veh, N4BP2L2 / RFU, ARFIP1 / Fold change vs veh, ARFIP1 / RFU, FAM179B / Fold change vs veh, FAM179B / RFU, BCL10 / Fold change vs veh, BCL10 / RFU, UHRF1BP1L / Fold change vs veh, UHRF1BP1L / RFU, BET1 / Fold change vs veh, BET1 / RFU, CNOT2 / Fold change vs veh, CNOT2 / RFU, ZNF268 / Fold change vs veh, ZNF268 / Fold change vs veh, ZNF507 / RFU, DGCR2 / Fold change vs veh, DGCR2 / RFU, WDSUB1 / Fold change vs veh, WDSUB1 / Fold change vs veh, HSP90B1 /// MIR3652 / RFU, ADSS / Fold change vs veh, ADSS / RFU, GK / Fold change vs veh, GK / RFU, ZNF148 / Fold change vs veh, ZNF148 / RFU, TAF9 / Fold change vs veh, TAF9 / RFU, SLC1A5 / Fold change vs veh, SLC1A5 / RFU, SLMO2 / Fold change vs veh, SLMO2 / RFU, ABCC4 / Fold change vs veh, ABCC4 / RFU, LOC101060439 /// RAP1B / Fold change vs veh, LOC101060439 /// RAP1B / RFU, RFX7 / Fold change vs veh, RFX7 / RFU, GTPBP10 / Fold change vs veh, GTPBP10 / RFU, CNEP1R1 / Fold change vs veh, CNEP1R1 / RFU, BIVM-ERCC5 /// ERCC5 / Fold change vs veh, BIVM-ERCC5 /// ERCC5 / RFU, ILF3 / Fold change vs veh, ILF3 / RFU 11762660_at / Fold change /veh 11762660_at / RFU VCAN (11757783_s_at) / Fold change /veh VCAN (11757783_s_at) / RFU DDX43 (11728927_at) / Fold change /veh DDX43 (11728927_at) / RFU KRT8 (11758188_x_at) / Fold change /veh KRT8 (11758188_x_at) / RFU NKD1 (11759106_at) / Fold change /veh NKD1 (11759106_at) / RFU SRD5A1 (11742802_a_at) / Fold change /veh SRD5A1 (11742802_a_at) / RFU TPSAB1 /// TPSB2 (11721975_s_at) / Fold change /veh TPSAB1 /// TPSB2 (11721975_s_at) / RFU GSTM3 (11746129_a_at) / Fold change /veh GSTM3 (11746129_a_at) / RFU IL23R (11737362_x_at) / Fold change /veh IL23R (11737362_x_at) / RFU TMEM51 (11727254_a_at) / Fold change /veh TMEM51 (11727254_a_at) / RFU PIWIL2 (11732686_x_at) / Fold change /veh PIWIL2 (11732686_x_at) / RFU ORM1 (11744905_x_at) / Fold change /veh ORM1 (11744905_x_at) / RFU CCDC152 (11743942_at) / Fold change /veh CCDC152 (11743942_at) / RFU ECM1 (11717891_a_at) / Fold change /veh ECM1 (11717891_a_at) / RFU IL23R (11748794_a_at) / Fold change /veh IL23R (11748794_a_at) / RFU TNFAIP8L3 (11732012_x_at) / Fold change /veh TNFAIP8L3 (11732012_x_at) / RFU MBOAT4 (11741988_at) / Fold change /veh MBOAT4 (11741988_at) / RFU 11764193_at / Fold change /veh 11764193_at / RFU TMEM53 (11763286_at) / Fold change /veh TMEM53 (11763286_at) / RFU MAGEB2 (11727129_at) / Fold change /veh MAGEB2 (11727129_at) / RFU TMEM200A (11744735_a_at) / Fold change /veh TMEM200A (11744735_a_at) / RFU CCDC152 (11751479_a_at) / Fold change /veh CCDC152 (11751479_a_at) / RFU FAM211A (11726209_a_at) / Fold change /veh FAM211A (11726209_a_at) / RFU RGS16 (11746705_a_at) / Fold change /veh RGS16 (11746705_a_at) / RFU VCAN (11755009_s_at) / Fold change /veh VCAN (11755009_s_at) / RFU RHOB (11743442_s_at) / Fold change /veh RHOB (11743442_s_at) / RFU RGS16 (11720943_a_at) / Fold change /veh RGS16 (11720943_a_at) / RFU RGS16 (11720944_at) / Fold change /veh RGS16 (11720944_at) / RFU, VPS4B / Fold change vs veh, VPS4B / RFU, CREB1 / Fold change vs veh, CREB1 / RFU, DNAJC13 / Fold change vs veh, DNAJC13 / RFU, GNAQ / Fold change vs veh, GNAQ / RFU, CDK5R1 / Fold change vs veh, CDK5R1 / RFU, ZRANB3 / Fold change vs veh, ZRANB3 / RFU, CUL4A / Fold change vs veh, CUL4A / RFU, CCNY / Fold change vs veh, CCNY / RFU, UFL1 / Fold change vs veh, UFL1 / RFU, COG3 / Fold change vs veh, COG3 / RFU, DIAPH2 / Fold change vs veh, DIAPH2 / RFU, SKA2 / Fold change vs veh, SKA2 / RFU, AFF3 / Fold change vs veh, AFF3 / RFU, LMF1 / Fold change vs veh, LMF1 / RFU, IPO11 / Fold change vs veh, IPO11 / RFU, DFFB / Fold change vs veh, DFFB / RFU, FOXP1 / Fold change vs veh, FOXP1 / RFU, CARD8 / Fold change vs veh, CARD8 / RFU, STRN3 / Fold change vs veh, STRN3 / RFU, ADK / Fold change vs veh, ADK / RFU, RASSF2 / Fold change vs veh, RASSF2 / RFU, WIPF1 / Fold change vs veh, WIPF1 / RFU, LARP1B / Fold change vs veh, LARP1B / RFU, RASA1 / Fold change vs veh, RASA1 / RFU, RB1 / Fold change vs veh, RB1 / RFU, PPFIA1 / Fold change vs veh, PPFIA1 / RFU, MAT2A / Fold change vs veh, MAT2A / RFU, CCT5 / Fold change vs veh, CCT5 / RFU, WDR92 / Fold change vs veh, WDR92 / RFU, CUX1 / Fold change vs veh, CUX1 / RFU, TTC7A / Fold change vs veh, TTC7A / RFU, TMEM135 / Fold change vs veh, TMEM135 / RFU, DEPTOR / Fold change vs veh, DEPTOR / RFU, CPM / Fold change vs veh, CPM / RFU, DNAJB6 / Fold change vs veh, DNAJB6 / RFU, CACNA2D3 / Fold change vs veh, CACNA2D3 / RFU, DTX4 / Fold change vs veh, DTX4 / RFU, TFCP2 / Fold change vs veh, TFCP2 / RFU, GMCL1 /// GMCL1P1 / Fold change vs veh, GMCL1 /// GMCL1P1 / RFU, AEBP2 / Fold change vs veh, AEBP2 / RFU, SNHG1 /// SNORD22 /// SNORD25 /// SNORD26 /// SNORD27 /// SNORD28 /// SNORD29 /// SNORD31 / Fold change vs veh, SNHG1 /// SNORD22 /// SNORD25 /// SNORD26 /// SNORD27 /// SNORD28 /// SNORD29 /// SNORD31 / Fold change (Aza/veh), C12orf56 (ProbeSet 11735607_a_at) / Fold change (ACY-1035/veh), C12orf56 (ProbeSet 11735607_a_at) / Fold change (Aza/veh), FGFR1OP (ProbeSet 11751329_s_at) / Fold change (ACY-1035/veh), FGFR1OP (ProbeSet 11751329_s_at) / Fold change (Aza/veh), VPS36 (ProbeSet 11739960_a_at) / Fold change (ACY-1035/veh), VPS36 (ProbeSet 11739960_a_at) / RFU SYPL1 (11715823_x_at) / Fold change /veh SYPL1 (11715823_x_at) / RFU IGFBP7 (11715501_s_at) / Fold change /veh IGFBP7 (11715501_s_at) / RFU REEP3 (11722064_at) / Fold change /veh REEP3 (11722064_at) / RFU IGLL1 (11728026_x_at) / Fold change /veh IGLL1 (11728026_x_at): dose or concentration left out as unconfirmed
Conditions: MV-4-11 cells, 48 hours

Nc1ncn([C@@H]2O[C@H](CO)[C@@H](O)[C@H]2O)c(=O)n1 [azacitidine]
Fold change /veh REEP3 (11722064_at): 0.73
